Laboratory results from US8288423B2, “FXa inhibitors with cyclic amidines as P4 subunit, processes for their preparations, and pharmaceutical compositions and derivatives thereof” (Legochem Bioscience Ltd., priority 2007, dated 2012).
≈ marks a conversion by molar mass, not a printed value. Where two headings read alike, the source gives them in different places.

Tests used:
plasma = experiment: Measurement of aPTT (activated partial thromboplastin time) in plasma; format: biochemical; parameters: unit not given here; details: STA-PTT, CaCl2, 37° C., unit not given
Method: The effect of oxazolidinone derivatives with cyclic amidines represented by Chemical Formula (1) according to the invention on blood coagulation was compared by measuring PT (prothrombin time) and aPTT (activated Partial Thromboplastin Time). The procedure of measurement is described below. A solution (5 μL) of the oxazolidinone derivative with cyclic amidine group represented by Chemical Formula (1) according to the invention (in a various concentration gradient, 5% DMSO solution) was added to the plasma ([…]), and the reaction was carried out at 37° C. for 2 minutes. STA-PTT (Diagnostica Stago) (50 μL) was then added thereto. After the reaction at 37° C. for additional 5 minutes, 25 mM CaCl2 (50 μL) was added thereto, and the duration for plasma coagulation was measured. The duration for plasma coagulation was determined as the point when the absorbance at 340 nm reaches 0.1.

plasma protein = experiment: Determination of plasma protein binding (ultrafiltration, LC-MS/MS); format: in vitro ADME; details: citrated plasma, 37° C., 60 minutes, Ultracel-10 filter
Method: Citrated plasma was purchased from Daejeon-Chungnam Blood Institute (located at Daejeon, Korea). A compound solution (500 μM in DMSO) (10 μL), according to the invention Was added to the plasma (1 mL), and the reaction was carried out at 37° C. and 120 rpm for 60 minutes. To three wells of Ultracel-10 filter plate (Millipore), the reaction solution was transferred (300 μL each). Then, the plasma solution (70 μL) was taken, and the total concentration of the compound was quantified by means of LC-MS/MS (API3000, ABI). After centrifuging the Ultracel-10 filter plate at 37° C. and 2000×g for 45 minutes, the filtrate was taken to determine the concentration of the compound which was not bound to the plasma protein. Percentage of plasma protein binding was obtained via Equation (2): % Protein binding=(1−concentration of compound in filtrate/concentration of compound in entire solution)×100% Free=100−% Protein binding [Equation 2]

thrombus formation = experiment: % inhibition against thrombus formation, arteriovenous shunt model in white rats; format: in vivo, white rats (male Sprague Dawley); parameters: concentration or dose not given beside the values; details: orally administered 1 hour before opening of the shunt; 15 minutes circulation; versus control group
Method: 3) Determination of % Inhibition Against Thrombus Formation by Means of Arteriovenous Shunt Model ([…]) in White Rats Antithrombotic effect of the compounds according to the present invention was evaluated by using arteriovenous shunt model in white rats. The animals used were male Sprague Dawleys with the body weight of 200-250 g. For one day before the experiment, the animals were fasted. Five to six animals were used for each test group. The compound of Example was orally administered 1 hour before opening of the shunt. The rats were anesthetized by abdominal administration of Rompun (Bay HealthCare) and Chloral hydrate or urethane in an amount of 12 and 50 mg per kg of the body weight. Into the left carotid artery and right jugular vein of the white rat, a polyethylene(PE)-60 tubing filled with physiological saline was inserted and secured. Both ends of individual PE tubing were connected to a silicone tubing having a length of 5 cm in which a cotton thread have been incorporated diagonally, and the shunt was open to provide circulation for 15 minutes. The shunt was then compressed by using jaws, and the cotton thread was carefully removed and the thrombus generated was weighed. The % inhibition of thrombus formation was calculated by using the weight of thrombus obtained from white rats of the control group to which a solution of oral administration was administered.

[1] = Determination of aqueous solubility; format: physicochemical; details: aqueous with cosolvent or surfactant or cyclodextrin, kinetic from dmso stock; 100 mM potassium phosphate buffer pH 7.4, 5% DMSO, final concentration 500 μM, ambient temperature 90 minutes
Method: The plate was agitated at ambient temperature for 90 minutes with a rate of 225 rpm. After agitation, the content of the plate was filtered with application of pressure. The filtrate (160 μL) was individually transferred to a uv-96 well plate (Costar), and mixed with 40 μL of acetonitrile, and then agitated at ambient temperature for 10 minutes with a rate of 225 rpm. By means of a plate reader (Molecular Devices, Spectramax 190), absorbances at the wavelengths of 280, 300, 320, 340, 360 and 800 nm were measured. As a reference solution, employed was 100 mM potassium phosphate buffer (pH 7.4) containing 20% acetonitrile added by 10 mM DMSO solution (8 μL).

Citrated plasma = experiment: Measurement of PT (prothrombin time) in citrated plasma; format: biochemical; details: STA-Neoplastine, 37° C., unit not given (2×PT value)
Method: The effect of oxazolidinone derivatives with cyclic amidines represented by Chemical Formula (1) according to the invention on blood coagulation was compared by measuring PT (prothrombin time) and aPTT (activated Partial Thromboplastin Time). The procedure of measurement is described below. Citrated plasma was purchased from Daejeon-Chungnam Blood Institute (located at Daejeon, Korea). A compound solution (5 μL) according to the invention (in a various concentration gradient, 5% DMSO solution) was added to the plasma ([…]), and the reaction was carried out at 37° C. for 5 minutes. STA-Neoplastine (Diagnostica Stago) (100 μL) was then added thereto, and the duration for plasma coagulation was measured. The duration for plasma coagulation is determined as the point when the absorbance at 340 nm reaches 0.1.

factor Xa [2] = target: T1, factor Xa (Homo sapiens, UniProt P00742); experiment: Inhibiting activity of factor Xa inhibitor (chromogenic substrate S-2765); format: biochemical; details: calculated from IC50 by Equation 1, Km 125 μM; S-2765 substrate, pH 7.8, 37° C.; read-out: Ki (nM), factor Xa inhibition constant
T1 construct: purchased Enzyme Research Laboratories
Method: Relative rate of hydrolysis (as compared to control group without inhibition) was plotted versus logarithm of the concentration of the oxazolidinone derivative with a cyclic amidine represented by Chemical Formula (1) according to the invention, to obtain the concentration of the inhibitor for 50% decrease in the rate of hydrolysis of the substrate.
The inhibition constant can be obtained by spectrophotometry whereby the color development is determined as a function of time, after being reacted with a specific substrate which develops color upon hydrolysis caused by action of factor Xa.
For the inhibitor solution, the inhibitor compound according to the present invention was diluted with dimethylsulfoxide (DMSO) in 10 mM, and then further diluted with third-distilled water (finally 10% DMSO solution), and the solution (10 μL) was added to each well. […] The substrate solution (20 μL) thus prepared was added to each well.
Kinetic analysis of the reaction was performed by a kinetic plate reader (Molecular Devices, Spectramax 190) at 37° C. for 20 minutes.
Relative rate of hydrolysis (compared to control group without inhibition) versus logarithm of the oxazolidinone derivative with a cyclic amidine group (Chemical Formula I) was plotted to obtain the concentration of the inhibitor to decrease the rate of hydrolysis of the substrate by 50%. GraFit (version 5.0.12) program for statistical process purchased from Erithacus Software was employed.
When inhibition constant Ki is calculated, it can be calculated according to Equation (1).

factor Xa [3] = target: T1, factor Xa; details: background art; cited from earlier work
[4] = background art; cited from earlier work

T1 sequence (P00742 235-488 limits assumed): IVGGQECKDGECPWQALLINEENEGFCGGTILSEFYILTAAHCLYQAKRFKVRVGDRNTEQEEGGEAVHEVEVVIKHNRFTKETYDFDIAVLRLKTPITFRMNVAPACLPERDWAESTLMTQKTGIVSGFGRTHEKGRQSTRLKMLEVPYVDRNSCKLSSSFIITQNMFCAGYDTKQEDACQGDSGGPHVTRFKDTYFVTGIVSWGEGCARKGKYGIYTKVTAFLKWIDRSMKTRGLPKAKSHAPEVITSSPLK
T1 sequence (P00742 41-179 partner limits assumed): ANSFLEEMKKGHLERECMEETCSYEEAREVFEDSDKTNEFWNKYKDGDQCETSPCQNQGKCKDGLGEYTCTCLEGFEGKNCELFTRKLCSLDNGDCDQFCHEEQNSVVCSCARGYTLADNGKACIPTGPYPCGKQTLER

## O=C(NC[C@H]1CN(c2ccc(C3=NCCN3)cc2)C(=O)O1)c1ccc(Cl)s1 [Compound 100, 5-chlorothiophene-2-carboxylic acid {(S)-3-[4-(4,5-dihydro-1H-imidazol-2-yl)-phenyl]-2-oxo-oxazolidin-5-ylmethyl}-amide]
plasma
  APTT: 2.29
Plasma protein
  Plasma protein binding (% Free): 17 % Free
Thrombus formation
  % Inhibition (of thrombus formation): 40%
[1]
  solubility at 90 min: 441 µM (≈ 179 µg/mL)
Citrated plasma
  PT: 0.22
Factor Xa [2]
  Ki: 47 nM

## O=C(NC[C@H]1CN(c2ccc(N3CCN=C3C3CC3)cc2)C(=O)O1)c1ccc(Cl)s1 [Compound 117]
plasma
  APTT: 0.29
Plasma protein
  Plasma protein binding (% Free): 17 % Free
Thrombus formation
  % Inhibition (of thrombus formation): 68%
[1]
  solubility at 90 min: 484 µM (≈ 215 µg/mL)
Citrated plasma
  PT: 0.04
Factor Xa [2]
  Ki: 3.18 nM

## CN1CCN=C1c1ccc(N2C[C@H](CNC(=O)c3ccc(Cl)s3)OC2=O)cc1 [Compound 101, 5-chlorothiophene-2-carboxylic acid {(S)-3-[4-(1-methyl-4,5-dihydro-1H-imidazol-2-yl)-phenyl]-2-oxo-oxazolidin-5-ylmethyl}-amide]
plasma
  APTT: 0.22
Plasma protein
  Plasma protein binding (% Free): 23 % Free
Thrombus formation
  % Inhibition (of thrombus formation): 2%
[1]
  solubility at 90 min: 434 µM (≈ 182 µg/mL)
Citrated plasma
  PT: 0.05
Factor Xa [2]
  Ki: 2.97 nM

## tick anticoagulant peptide (YNRLCIKPRDWIDECDSNEGGERAYFRNGKGGCDSFWICPEDHTGADYYSSYRDCFNACI; UniProt P17726 1-60, looked up) [TAP]
Factor Xa [3]
  Ki: 0.5 nM

## O=C(NC[C@H]1CN(c2ccc(N3CCN=C3c3ccco3)cc2)C(=O)O1)c1ccc(Cl)s1 [Compound 123]
plasma
  APTT: 0.26
Plasma protein
  Plasma protein binding (% Free): 3 % Free
Thrombus formation
  % Inhibition (of thrombus formation): 71%
[1]
  solubility at 90 min: 474 µM (≈ 223 µg/mL)
Citrated plasma
  PT: 0.07
Factor Xa [2]
  Ki: 0.39 nM

## CCN1CCN=C1c1ccc(N2C[C@H](CNC(=O)c3ccc(Cl)s3)OC2=O)cc1 [Compound 102, 5-chlorothiophene-2-carboxylic acid {(S)-3-[4-(1-ethyl-4,5-dihydro-1H-imidazole-2-yl)-phenyl]-2-oxo-oxazolidin-5-ylmethyl}-amide]
plasma
  APTT: 0.17
Plasma protein
  Plasma protein binding (% Free): 28 % Free
Thrombus formation
  % Inhibition (of thrombus formation): 26%
[1]
  solubility at 90 min: 462 µM (≈ 200 µg/mL)
Citrated plasma
  PT: 0.04
Factor Xa [2]
  Ki: 3.43 nM

## O=C(NC[C@H]1CN(c2ccc(N3CCOCC3=O)cc2)C(=O)O1)c1ccc(Cl)s1 [Rivaroxaban, reference compound]
plasma
  APTT: 0.39
Plasma protein
  Plasma protein binding (% Free): 9 % Free
Thrombus formation
  % Inhibition (of thrombus formation): 83%
[1]
  solubility at 90 min: 50 µM (≈ 21.8 µg/mL)
Citrated plasma
  PT: 0.09
[4]
  solubility: about 8 mg/L

## CCN1CCN=C1c1ccc(N2C[C@H](CNC(=O)c3ccc(Cl)s3)OC2=O)cc1Cl [Compound 112, 5-chlorothiophene-2-carboxylic acid {(S)-3-[3-chloro-4-(1-ethyl-4,5-dihydro-1H-imidazol-2-yl)-phenyl]-2-oxo-oxazolidin-5-ylmethyl}-amide]
plasma
  APTT: 0.19
Thrombus formation
  % Inhibition (of thrombus formation): 26%
Citrated plasma
  PT: 0.05
Factor Xa [2]
  Ki: 4.05 nM

## CN1CCCN=C1c1ccc(N2C[C@H](CNC(=O)c3ccc(Cl)s3)OC2=O)cc1 [Compound 107, 5-chlorothiophene-2-carboxylic acid {(S)-3-[4-(1-methyl-1,4,5,6-tetrahydropyrimidine-2-yl)-phenyl]-2-oxo-oxazolidin-5-ylmethyl}-amide]
plasma
  APTT: 0.28
Plasma protein
  Plasma protein binding (% Free): 31 % Free
Thrombus formation
  % Inhibition (of thrombus formation): 50%
[1]
  solubility at 90 min: 411 µM (≈ 178 µg/mL)
Citrated plasma
  PT: 0.09
Factor Xa [2]
  Ki: 5.7 nM

## CCC1=NCCN1c1ccc(N2C[C@H](CNC(=O)c3ccc(Cl)s3)OC2=O)cc1 [Compound 116]
plasma
  APTT: 0.18
Thrombus formation
  % Inhibition (of thrombus formation): 65%
Citrated plasma
  PT: 0.05
Factor Xa [2]
  Ki: 3.46 nM

## O=C(NC[C@H]1CN(c2ccc(N3CCN=C3c3ccoc3)cc2)C(=O)O1)c1ccc(Cl)s1 [Compound 124]
plasma
  APTT: 0.26
Thrombus formation
  % Inhibition (of thrombus formation): 52%
Citrated plasma
  PT: 0.07
Factor Xa [2]
  Ki: 1.71 nM

B1: antistasin (protein, UniProt P15358 18-136, looked up)
Antistasin: QGPFGPGCEEAGCPEGSACNIITDRCTCSGVRCRMHCPHGFQRSRYGCEFCKCRLEPMKATCDISECPEGMMCSRLTNKCDCKIDINCRKTCPNGLKRDKLGCEYCECRPKRKLIPRLS
Factor Xa [3]
  Ki: 0.05 nM
